Laboratory results published in patent US20260242368A1, “GBA1 AND GCS DUAL MODULATOR” (ONO PHARMACEUTICAL CO., LTD., priority 2023, published 2026).

How the values were obtained:
[1] = tested on: GBA1 (β-glucocerebrosidase mutation of N307S) in Gaucher's cell line GM00372; test: Evaluation of human GBA1 cellular activity (Gaucher's cell line, 6 days treatment); format: cell-based; settings: GM00372 cells, DMSO-treated cells as negative control, normalized to protein
Protocol: The Gaucher's cell line with β-glucocerebrosidase mutation of N307S (Coriell Institute, Cat. GM00372) was cultured and expanded using EMEM with 15% FBS. The cell was passaged at least twice and could be used until the 20th passages. The cells were seeded at the density of 1.25×10^4 cells/well in 96-well plate. After cell culturing overnight, 50 μL of cell medium was discarded, and 50 μL of the diluted compound was added (with 0.3% DMSO). The cells were treated with compound for 6 days. On day 6, the cells were washed once with HBSS and incubated in HBSS for 3 h followed by lysing using 30 μL assay buffer (pH5.2 Mcllvaine buffer supplemented with 0.25% sodium taurocholate, 0.5% Triton X-100 and protease cocktail inhibitor) for 5 min at 4° C. on shaker. For GBA enzymatic assay, 15 μL of cell lysate was incubated with 5 μL of 4-MUG (6 mmol/L) for 60 min in 384 well format followed by adding 20 μL of stop solution (1 mmol/L glycine solution adjusted to pH10 using 1 mol/L NaOH). The reaction product of 4-MU was measured (excitation 355 nm, emission 450 nm) on fluorescence spectrophotometer. For the protein quantification, 4 μL of cell lysate was mixed with 36 μL of Pierce BCA reagents for 30 min. The protein was detected according to the manufacturer's instructions. Enzyme activity in cell lysate was normalized to protein concentration. The blank included substrate and assay buffer followed by addition of stop solution. Enzyme activity in cells treated with DMSO was used as a negative control, and results were represented as the percent change in enzyme activity in cells treated with each compound.

Human GCS = target: T1, Human GCS (Homo sapiens, UniProt Q16739); test: Evaluation of human GCS enzyme inhibitory activity (HL60 cell lysate, NBD-C6 ceramide, LC/MSMS); format: biochemical; settings: 37° C. 90 min, read-out: GCS inhibition IC50
T1 construct: The lysate of HL60 cells were used in this assay; endogenous in cells; host or cells: HL60 cells (lysate supernatant)
T1 sequence (Q16739 1-394): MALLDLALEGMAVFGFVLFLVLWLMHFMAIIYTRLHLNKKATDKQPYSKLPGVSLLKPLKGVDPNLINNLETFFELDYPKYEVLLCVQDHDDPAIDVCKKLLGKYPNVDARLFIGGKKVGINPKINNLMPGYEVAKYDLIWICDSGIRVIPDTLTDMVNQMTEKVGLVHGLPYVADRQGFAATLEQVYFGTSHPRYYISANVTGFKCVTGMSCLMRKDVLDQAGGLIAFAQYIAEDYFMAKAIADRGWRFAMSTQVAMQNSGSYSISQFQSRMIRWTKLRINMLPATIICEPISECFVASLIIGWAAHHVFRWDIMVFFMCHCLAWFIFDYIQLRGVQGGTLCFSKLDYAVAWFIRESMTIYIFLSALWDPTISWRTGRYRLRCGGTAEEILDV

[2] = target: T2, recombinant GBA enzyme (human GBA1) (Homo sapiens, UniProt P04062); test: Evaluation of human GBA1 enzyme inhibitory activity (4-MUG substrate); format: biochemical; settings: pH5.2, 37° C. 60 min, read-out: GBA1 inhibition IC50
T2 sequence (P04062 40-536): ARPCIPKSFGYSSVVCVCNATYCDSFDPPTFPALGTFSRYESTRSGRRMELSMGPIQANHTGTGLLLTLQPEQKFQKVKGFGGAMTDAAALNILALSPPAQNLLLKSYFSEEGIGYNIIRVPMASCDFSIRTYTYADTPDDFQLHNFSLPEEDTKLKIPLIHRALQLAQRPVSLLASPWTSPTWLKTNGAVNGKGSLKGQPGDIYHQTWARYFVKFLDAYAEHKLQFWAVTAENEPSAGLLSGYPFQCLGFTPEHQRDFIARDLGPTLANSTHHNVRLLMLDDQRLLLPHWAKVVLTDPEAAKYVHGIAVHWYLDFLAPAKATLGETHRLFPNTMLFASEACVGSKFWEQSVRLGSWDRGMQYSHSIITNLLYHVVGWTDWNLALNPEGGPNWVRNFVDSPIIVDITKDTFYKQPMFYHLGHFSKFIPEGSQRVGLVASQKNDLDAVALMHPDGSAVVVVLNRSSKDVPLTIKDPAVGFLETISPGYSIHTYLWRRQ

human GBA2 = target: T3, human GBA2 (Homo sapiens, UniProt Q9HCG7); test: Evaluation of human GBA2 enzyme inhibitory activity (GBA2-rich membrane suspension, 4-MUG); format: biochemical; settings: GBA2-rich membrane of transfected HEK293T cells, CBE preincubation, read-out: GBA2 inhibition IC50
T3 construct: The complete open reading frames for GBA2 (human NM_020944.2) was amplified from human tissue; made in house; host or cells: HEK293T cells, transiently transfected (pCDNA-3.1); washed membrane pellet used as crude enzyme
T3 sequence (Q9HCG7 1-927): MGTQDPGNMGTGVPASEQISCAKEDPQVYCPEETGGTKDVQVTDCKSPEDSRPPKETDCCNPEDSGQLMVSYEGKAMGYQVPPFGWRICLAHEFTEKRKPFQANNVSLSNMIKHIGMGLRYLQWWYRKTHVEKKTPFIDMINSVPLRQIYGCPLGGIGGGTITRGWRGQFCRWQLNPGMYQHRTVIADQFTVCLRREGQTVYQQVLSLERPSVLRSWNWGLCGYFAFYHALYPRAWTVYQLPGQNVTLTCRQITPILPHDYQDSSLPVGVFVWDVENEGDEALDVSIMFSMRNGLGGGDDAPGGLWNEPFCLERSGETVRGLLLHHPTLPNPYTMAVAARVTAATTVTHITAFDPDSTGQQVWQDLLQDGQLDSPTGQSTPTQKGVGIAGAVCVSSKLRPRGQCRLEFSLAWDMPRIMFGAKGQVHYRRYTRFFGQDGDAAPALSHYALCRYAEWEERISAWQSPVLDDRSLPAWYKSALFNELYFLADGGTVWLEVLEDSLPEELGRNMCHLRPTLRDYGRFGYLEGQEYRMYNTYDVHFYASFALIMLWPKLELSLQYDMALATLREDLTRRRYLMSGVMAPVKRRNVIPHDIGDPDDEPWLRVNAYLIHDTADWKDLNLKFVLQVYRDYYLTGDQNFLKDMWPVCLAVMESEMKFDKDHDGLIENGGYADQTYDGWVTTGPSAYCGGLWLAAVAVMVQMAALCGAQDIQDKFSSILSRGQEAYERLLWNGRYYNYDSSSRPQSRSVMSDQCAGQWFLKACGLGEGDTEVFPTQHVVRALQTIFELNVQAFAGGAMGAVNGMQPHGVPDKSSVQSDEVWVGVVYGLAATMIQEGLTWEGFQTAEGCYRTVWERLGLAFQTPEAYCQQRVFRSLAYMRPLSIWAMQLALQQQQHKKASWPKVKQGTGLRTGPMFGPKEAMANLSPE

SMILES | IC50 (Human GCS) [nM] | IC50 [2] [nM] | IC50 (human GBA2) [µM] | Percent change in enzyme activity at test concentration 0.37 μM [1] [%] | Percent change in enzyme activity at test concentration 1.1 μM [1] [%] | Percent change in enzyme activity at test concentration 3.3 μM [1] [%] | Percent change in enzyme activity at test concentration 10 μM [1] [%] | Percent change in enzyme activity at test concentration […] [1] [%]
CCOc1cc(COC[C@@H](F)CCCCN2C[C@H](O)[C@@H](O)[C@H](O)[C@@H](O)C2)ccc1F (single isomer, unassigned) [Example 72] | 190 | 1200 | > 10 | 214 | 248 | 259 | 284 | 160
Cc1nc(COC[C@@H](F)CCCCN2C[C@H](O)[C@@H](O)[C@H](O)[C@@H](O)C2)c(-c2cc(F)cc(F)c2)o1 (single isomer, unassigned) [Example 100] | – | – | – | 147 | 145 | 163 | 169 | 142
Cc1ccc(COC[C@@H](F)CCCCN2C[C@H](O)[C@@H](O)[C@H](O)[C@@H](O)C2)cc1 (single isomer, unassigned) [Example 135] | 670 | 3200 | > 10 | 108 | 127 | 153 | 191 | 102
O[C@H]1[C@H](O)[C@@H](O)CN(CCCC[C@H](F)COCc2ccc(-c3cc(F)cc(F)c3)nn2)C[C@@H]1O (single isomer, unassigned) [Example 139] | 220 | 5100 | > 10 | 119 | 154 | 157 | 204 | 115
Cc1ccc(COCCCCCCN2C[C@H](O)[C@@H](O)[C@H](O)[C@@H](O)C2)cc1 [Example 1, (3S,4R,5R,6S)-1-{6-[(4-methylbenzyl)oxy]hexyl}-3,4,5,6-azepanetetrol] | 2000 | 5100 | > 10 | 166 | 200 | 221 | 230 | 155

The remaining compounds from weak to strong by IC50 (Human GCS), led by results:

IC50 (Human GCS) [nM] | IC50 [2] [nM] | IC50 (human GBA2) [µM] | SMILES | Percent change in enzyme activity at test concentration 0.37 μM [1] [%] | Percent change in enzyme activity at test concentration 1.1 μM [1] [%] | Percent change in enzyme activity at test concentration 3.3 μM [1] [%] | Percent change in enzyme activity at test concentration 10 μM [1] [%] | Percent change in enzyme activity at test concentration […] [1] [%]
170 | 1100 | > 10 | CCc1ccc(COC[C@@H](F)CCCCN2C[C@H](O)[C@@H](O)[C@H](O)[C@@H](O)C2)cc1 (single isomer, unassigned) [Example 101] | 157 | 209 | 219 | 227 | 157
130 | 1200 | > 10 | O[C@H]1[C@H](O)[C@@H](O)CN(CCCC[C@H](F)COCc2ccc(Cl)cc2)C[C@@H]1O (single isomer, unassigned) [Example 107] | 110 | 141 | 157 | 199 | 109
60 | 2400 | > 10 | O[C@H]1[C@H](O)[C@@H](O)CN(CCCCCCOCc2csc(-c3cc(F)cc(F)c3)n2)C[C@@H]1O [Example 21, (3S,4R,5R,6S)-1-(6-{[2-(3,5-difluorophenyl)-1,3-thiazol-4-yl]methoxy}hexyl)-3,4,5,6-azepanetetrol] | – | – | – | – | –
30 | 1700 | > 10 | O[C@H]1[C@H](O)[C@@H](O)CN(CCCC[C@H](F)COCc2csc(-c3ccc(F)cc3)n2)C[C@@H]1O (single isomer, unassigned) [Example 74] | 150 | 185 | 193 | 216 | 96
